Assay results as given in patent US20250230193A1, “CYCLIC COMPOUND HAVING SELECTIVE KRAS INHIBITORY EFFECT ON HRAS AND NRAS” (CHUGAI SEIYAKU KABUSHIKI KAISHA, priority 2022, published 2025).
Where a SMILES comes first, the peptide text is derived from it. Bridges are numbered along the chain shown (N, C = ends). [ ]: non-standard residue; d: D form. The star is where a group is joined. hPhe(3-Cl-4-CF3) = N[C@@H](CCc1ccc(C(F)(F)F)c(Cl)c1)C(=O)O; NPrPhe(4-CF3) = CCCN[C@@H](Cc1ccc(C(F)(F)F)cc1)C(=O)O; NMeGly(cPent) = CN[C@H](C(=O)O)C1CCCC1; NMeD = CN[C@@H](CC(=O)O)C(=O)O; NMeL = CN[C@@H](CC(C)C)C(=O)O; Morpholide = C1CN(*)CCO1; Ac5c = NC1(C(=O)O)CCCC1; Aze = O=C(O)[C@@H]1CCN1; Abu = CC[C@H](N)C(=O)O; Sar = CNCC(=O)O

Key:
[1] = biological target: GDP-bound NRAS wild-type protein (Homo sapiens, UniProt P01111); experiment: Binding to NRAS by surface plasmon resonance (SPR), Single Cycle Kinetics
[2] = biological target: GDP-bound HRAS wild-type protein (Homo sapiens, UniProt P01112); experiment: Binding to HRAS by surface plasmon resonance (SPR), Single Cycle Kinetics
[3] = KD ratio, GDP-bound NRAS wild-type vs GDP-bound KRAS wild-type, SPR
[4] = KD ratio, GDP-bound HRAS wild-type vs GDP-bound KRAS wild-type, SPR
[5] = KD ratio NRAS/KRAS, class symbols
[6] = KD ratio HRAS/KRAS, class symbols

Sequence of GDP-bound NRAS wild-type protein (P01111 whole entry): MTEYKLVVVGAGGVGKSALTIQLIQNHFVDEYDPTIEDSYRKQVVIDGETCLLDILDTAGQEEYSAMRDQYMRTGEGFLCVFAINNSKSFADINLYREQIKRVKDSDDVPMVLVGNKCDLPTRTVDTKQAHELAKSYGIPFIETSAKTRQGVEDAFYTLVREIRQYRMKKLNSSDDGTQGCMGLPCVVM
Sequence of GDP-bound HRAS wild-type protein (P01112 whole entry): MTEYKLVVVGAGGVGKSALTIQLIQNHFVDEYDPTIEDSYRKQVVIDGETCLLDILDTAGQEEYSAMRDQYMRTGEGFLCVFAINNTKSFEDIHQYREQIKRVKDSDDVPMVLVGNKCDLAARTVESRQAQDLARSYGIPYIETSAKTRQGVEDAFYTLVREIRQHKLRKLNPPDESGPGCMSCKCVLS

`CCC[C@H]1C(=O)N[C@@H]([C@@H](C)CC)C(=O)N(C2CC2)CC(=O)N(C)[C@H]2C/C=C\CCN(C2=O)[C@@H](CC2CCC(F)(F)CC2)C(=O)N(C)CC(=O)N[C@@H](CCc2ccc(C(F)(F)F)c(OC)c2)C(=O)N2C[C@@H](C)C[C@H]2C(=O)N(C)C2(CCC2)C(=O)N(C)[C@@H](C2CCCC2)C(=O)N(C)[C@H](C(=O)N(C)C)CC(=O)N1C` [PP2378] was tested, and the “NRAS/KRAS (ratio of KD value with respect to NRAS to KD value with respect to KRAS)” value ([1]; SPR, GDP-bound NRAS wild-type vs GDP-bound KRAS wild-type) was “B (a compound having 3 or more and less than 10 is denoted as B)” and the “HRAS/KRAS (ratio of KD value with respect to HRAS to KD value with respect to KRAS)” value ([2]; SPR, GDP-bound HRAS wild-type vs GDP-bound KRAS wild-type) was “A (a compound having 10 or more and less than 20 is denoted as A)”.

With `CC[C@H](C)[C@@H]1NC(=O)[C@H](CC(C)C)N(C)C(=O)C[C@@H](C(=O)N(C)C)N(C)C(=O)[C@H](C2CCCC2)N(C)C(=O)C2(CCCC2)NC(=O)[C@@H]2CCCN2C(=O)[C@H](CCc2ccc(C(F)(F)F)c(Cl)c2)NC(=O)CN(C)C(=O)[C@H](Cc2ccc(F)cc2)N2CCCCC[C@@H](C2=O)N(C)C(=O)CN(C)C1=O` [PP0971] the “NRAS/KRAS (ratio of KD value with respect to NRAS to KD value with respect to KRAS)” value [1, 3] was “B (a compound having 3 or more and less than 10 is denoted as B)” and the “HRAS/KRAS (ratio of KD value with respect to HRAS to KD value with respect to KRAS)” value [2, 4] was “B (a compound having 3 or more and less than 10 is denoted as B)”.

In the case of `CCC[C@H]1C(=O)N[C@H]([C@@H](C)CC)C(=O)N(C)CC(=O)N(C)[C@H]2C/C=C\CCN(C2=O)[C@@H](Cc2ccc(C)cc2)C(=O)N(C)CC(=O)N[C@@H](CCc2cc(F)c(C(F)F)c(F)c2)C(=O)N2C[C@H](OCC)C[C@H]2C(=O)NC2(CC(C)(C)C2)C(=O)N(C)[C@@H](C(CC)CC)C(=O)N(C)[C@H](C(=O)N(C)C)CC(=O)N1C` (stereo in doubt) [PP2783], the “NRAS/KRAS (ratio of KD value with respect to GDP-bound NRAS wild-type protein to KD value with respect to KRAS)” value [1, 5] is reported as “A (a compound having 10 or more and less than 20 is denoted as A)” and the “HRAS/KRAS (ratio of KD value with respect to GDP-bound HRAS wild-type protein to KD value with respect to KRAS)” value [2, 6] is reported as “A (a compound having 10 or more and less than 20 is denoted as A)”.

With `CCO[C@@H]1C[C@H]2C(=O)NC3(CCC3)C(=O)N(C)[C@@H](C3CCCC3)C(=O)N(C)[C@H](C(=O)N(C)C)CC(=O)N(C)[C@@H](CC)C(=O)N[C@@H]([C@@H](C)CC)C(=O)N(CC)CC(=O)N(C)[C@H]3C/C=C\CCN(C3=O)[C@@H](Cc3ccc(C(F)(F)F)cc3)C(=O)N(C)CC(=O)N[C@@H](CCc3cc(F)c(C(F)(F)F)c(F)c3)C(=O)N2C1` [PP1052] the “NRAS/KRAS (ratio of KD value with respect to NRAS to KD value with respect to KRAS)” value [1, 3] was “A (a compound having 10 or more and less than 20 is denoted as A)” and the “HRAS/KRAS (ratio of KD value with respect to HRAS to KD value with respect to KRAS)” value [2, 4] was “A (a compound having 10 or more and less than 20 is denoted as A)”.

For `CC[C@H](C)[C@@H]1NC(=O)[C@H](CC(C)C)N(C)C(=O)C[C@@H](C(=O)N2CCOCC2)N(C)C(=O)[C@H](C2CCCC2)N(C)C(=O)C2(CCCC2)NC(=O)[C@@H]2CCCN2C(=O)[C@H](CCc2ccc(C(F)(F)F)c(Cl)c2)NC(=O)CN(C)C(=O)[C@H](Cc2ccc(C(F)(F)F)cc2)N2CC=CC[C@@H](C2=O)N(C)C(=O)CN(C)C1=O` [PP0462], the “NRAS/KRAS (ratio of KD value with respect to GDP-bound NRAS wild-type protein to KD value with respect to KRAS)” value ([1]; KD ratio NRAS/KRAS, SPR) was “C (A compound having a KD ratio of 0.1 or more and less than 3 is denoted as C)” and the “HRAS/KRAS (ratio of KD value with respect to GDP-bound HRAS wild-type protein to KD value with respect to KRAS)” value ([2]; KD ratio HRAS/KRAS, SPR) was “C (A compound having a KD ratio of 0.1 or more and less than 3 is denoted as C)”.

`CCCN1C(=O)CN(C)C(=O)[C@@H]2CCN2C(=O)[C@H](CC)NC(=O)[C@H](CC(C)C)N(C)C(=O)C[C@@H](C(=O)N2CCOCC2)N(C)C(=O)[C@H](C2CCCC2)N(C)C(=O)C2(CCCC2)NC(=O)[C@@H]2CCCN2C(=O)[C@H](CCc2ccc(C(F)(F)F)c(Cl)c2)NC(=O)CN(C)C(=O)[C@@H]1Cc1ccc(C(F)(F)F)cc1` [PP0303] ([NMeL][Abu][Aze][Sar][NPrPhe(4-CF3)][Sar][hPhe(3-Cl-4-CF3)]P[Ac5c][NMeGly(cPent)][NMeD]-Morpholide; lactam N-11) was tested, and the “NRAS/KRAS (ratio of KD for GDP-bound NRAS wild-type to KD for KRAS)” value ([1]; KD ratio NRAS/KRAS, SPR) was “B (a compound having 3 or more and less than 10 is denoted as B)” and the “HRAS/KRAS (ratio of KD for GDP-bound HRAS wild-type to KD for KRAS)” value ([2]; KD ratio HRAS/KRAS, SPR) was “B (a compound having 3 or more and less than 10 is denoted as B)”.

In the case of `CCO[C@@H]1C[C@H]2C(=O)NC3(CC(C)(C)C3)C(=O)N(C)[C@@H](C3CCCC3)C(=O)N(C)[C@H](C(=O)N3CCCCC3)CC(=O)N(C)[C@H]3CCC/C=C/c4ccc(cc4)C[C@@H](C(=O)N(C)CC(=O)N[C@@H](CCc4cc(F)c(C(F)(F)F)c(F)c4)C(=O)N2C1)N1CC/C=C\C[C@@H](C1=O)N(C)C(=O)CN(C)C(=O)[C@H]([C@@H](C)CC)NC3=O` [PP2573], the “NRAS/KRAS (ratio of KD value with respect to GDP-bound NRAS wild-type protein to KD value with respect to KRAS)” value [1, 5] is reported as “A (a compound having 10 or more and less than 20 is denoted as A)” and the “HRAS/KRAS (ratio of KD value with respect to GDP-bound HRAS wild-type protein to KD value with respect to KRAS)” value [2, 6] is reported as “A (a compound having 10 or more and less than 20 is denoted as A)”.

`CC[C@H](C)[C@@H]1NC(=O)[C@H](CC(C)C)N(C)C(=O)C[C@@H](C(=O)N(C)C)N(C)C(=O)[C@H](C2CCCC2)N(C)C(=O)C2(CC(C)(C)C2)NC(=O)[C@@H]2CC(F)(F)CN2C(=O)[C@H](CCc2cc(F)c(C(F)(F)F)c(F)c2)NC(=O)CN(C)C(=O)[C@H](Cc2ccc(C(F)(F)F)cc2)N2CC/C=C\C[C@@H](C2=O)N(C)C(=O)CN(C)C1=O` [PP1715] was tested, and the “NRAS/KRAS (ratio of KD value for NRAS to KD value for KRAS)” value [1, 3] was “AA (a compound having 20 or more is denoted as AA)” and the “HRAS/KRAS (ratio of KD value for HRAS to KD value for KRAS)” value [2, 4] was “A (a compound having 10 or more and less than 20 is denoted as A)”.

For `CCC[C@H]1C(=O)N[C@@H]([C@@H](C)CC)C(=O)N(C)CC(=O)N(C)[C@H]2C/C=C\CCN(C2=O)[C@@H](Cc2ccc(C)cc2)C(=O)N(C)CC(=O)N[C@@H](CCc2ccc(C(F)(F)F)c(OC)c2)C(=O)N2CC3(CC3)C[C@H]2C(=O)NC2(CC(C)(C)C2)C(=O)N(C)[C@@H]([C@@H](C)CC)C(=O)N(C)[C@H](C(=O)N(C)C)CC(=O)N1C` [PP3011], the “NRAS/KRAS (ratio of KD value with respect to GDP-bound NRAS wild-type protein to KD value with respect to KRAS)” value ([1]; KD ratio NRAS/KRAS, SPR, GDP-bound wild-type proteins) was “A (a compound having 10 or more and less than 20 is denoted as A)” and the “HRAS/KRAS (ratio of KD value with respect to GDP-bound HRAS wild-type protein to KD value with respect to KRAS)” value ([2]; KD ratio HRAS/KRAS, SPR, GDP-bound wild-type proteins) was “B (a compound having 3 or more and less than 10 is denoted as B)”.

With `CCO[C@@H]1C[C@H]2C(=O)NC3(CCC3)C(=O)N(C)[C@@H](C3CCCC3)C(=O)N(C)[C@H](C(=O)N(C)C)CC(=O)N(C)[C@@H](Cc3ccc(Cl)cc3)C(=O)N[C@@H]([C@@H](C)CC)C(=O)N(C)CC(=O)N(C)[C@H]3CCCCCN(C3=O)[C@@H](Cc3ccc(C(F)(F)F)cc3)C(=O)N(C)CC(=O)N[C@@H](CCc3cc(F)c(C(F)(F)F)c(F)c3)C(=O)N2C1` [PP0940] the “NRAS/KRAS (ratio of KD value with respect to NRAS to KD value with respect to KRAS)” value [1, 3] was “B (a compound having 3 or more and less than 10 is denoted as B)” and the “HRAS/KRAS (ratio of KD value with respect to HRAS to KD value with respect to KRAS)” value [2, 4] was “C (A compound having a KD ratio of 0.1 or more and less than 3 is denoted as C)”.

For `CC[C@H](C)[C@@H]1NC(=O)[C@H](CC(C)C)N(C)C(=O)C[C@@H](C(=O)N2CCOCC2)N(C)C(=O)[C@H](C2CCCC2)N(C)C(=O)C2(CCCC2)NC(=O)[C@@H]2CCCN2C(=O)[C@H](CCc2ccc(C(F)(F)F)c(Cl)c2)NC(=O)CN(C)C(=O)[C@H](Cc2ccc(OC(F)(F)F)cc2)N2CCCC[C@@H](C2=O)N(C)C(=O)CN(C)C1=O` [PP0536], the “NRAS/KRAS (ratio of KD value with respect to GDP-bound NRAS wild-type protein to KD value with respect to KRAS)” value ([1]; KD ratio NRAS/KRAS, SPR) was “B (a compound having 3 or more and less than 10 is denoted as B)” and the “HRAS/KRAS (ratio of KD value with respect to GDP-bound HRAS wild-type protein to KD value with respect to KRAS)” value ([2]; KD ratio HRAS/KRAS, SPR) was “B (a compound having 3 or more and less than 10 is denoted as B)”.
